Measurements: PMC5447021, “TNF Lectin-Like Domain Restores Epithelial Sodium Channel Function in Frameshift Mutants Associated with Pseudohypoaldosteronism Type 1B” (Frontiers in Immunology, 2017)
Entries after “also recorded” stand apart in the source; their conditions may differ. Marks after values point to notes of the source that are not given here.

How the values were obtained:
[1] = system: WT or mutant frameshift α-ENaC; assay: Membrane abundance of α-ENaC, WT or mutant frameshift (overall); type: cell-based, human; details: HEK-293, WT or mutant frameshift α-ENaC
Method: Cell surface biotinylation was performed as previously described ([26]). In brief, A549 cells or transiently transfected HEK-293 cells were grown in 10 cm dishes in 37°C, 5% CO2 incubator in DMEM medium supplemented with 5% FBS. […] Medium was aspirated, and then cells were washed twice with 10 ml ice-cold phosphate-buffered saline (PBS), covered with 2.5 mg EZ-Link Sulfo-NHS-SS-Biotin (Thermo Scientific, Rockford, USA), dissolved in 10 ml ice-cold PBS, and incubated at 4°C with gentle agitation for 30 min. Fifty milliliters of quenching solution were added to cells; then cells were scraped in solution and transferred to fresh 50 ml tube. Cell suspension was centrifuged at 500 × g for 3 min. Supernatant was discarded, and 5 ml of Tris-buffered saline (TBS) was added to the cell pellet. The cell pellet was resuspended and centrifuged at 500 × g for 3 min. Supernatant was discarded and cell pellet was resuspended in lysis buffer containing protease inhibitor cocktail (10 µM pepstatin A, 10 µM phenylmethylsulfonyl fluoride, and 10 µM leupeptin) and transferred to fresh 1.5 ml centrifuge tube. Cell pellet was then homogenized on ice by ultrasonication using 1 s bursts and incubated on ice for at least 30 min. Intact cells and nuclei were pelleted by centrifugation at 10,000 × g for 2 min under cooling conditions. […] Exposed films were scanned and quantified using ImageJ (NIH, MD, USA). […]

flooded rat lung = details: in situ and in vivo; cited from earlier work
From the text: (§1) Like TNF, TIP peptide can influence regulation of alveolar fluid balance.

pulmonary edema = details: acute hypobaric hypoxia and exercise; cited from earlier work
From the text: as §1

rat lung transplantation = details: instilled intratracheally into rats prior to lung transplantation; cited from earlier work
From the text: as §1

[2] = system: V567A/E568A and V567A/E568A/E571A α-ENaC mutants; details: cited from earlier work
From the text: Lucas et al. ([31]) identified positions V567, E568, and E571 in the α-subunit as the crucial sites for binding of the lectin-like domain of TNF. They generated alanine replacement mutants in this region of α-ENaC and examined its interaction with the TIP peptide. […] In fact, this applies to all the frameshift mutants examined here.

αL576XβD546XγD556X = assay: Amiloride-sensitive current, αL576XβD546XγD556X; type: cell-based, human; details: lacking all carboxyl termini, preliminary experiments
αT482fs = assay: Membrane abundance of αT482fs; type: cell-based, human
Method: Cell surface biotinylation was performed as previously described ([26]). In brief, A549 cells or transiently transfected HEK-293 cells were grown in 10 cm dishes in 37°C, 5% CO2 incubator in DMEM medium supplemented with 5% FBS. […] Medium was aspirated, and then cells were washed twice with 10 ml ice-cold phosphate-buffered saline (PBS), covered with 2.5 mg EZ-Link Sulfo-NHS-SS-Biotin (Thermo Scientific, Rockford, USA), dissolved in 10 ml ice-cold PBS, and incubated at 4°C with gentle agitation for 30 min. Fifty milliliters of quenching solution were added to cells; then cells were scraped in solution and transferred to fresh 50 ml tube. Cell suspension was centrifuged at 500 × g for 3 min. Supernatant was discarded, and 5 ml of Tris-buffered saline (TBS) was added to the cell pellet. The cell pellet was resuspended and centrifuged at 500 × g for 3 min. Supernatant was discarded and cell pellet was resuspended in lysis buffer containing protease inhibitor cocktail (10 µM pepstatin A, 10 µM phenylmethylsulfonyl fluoride, and 10 µM leupeptin) and transferred to fresh 1.5 ml centrifuge tube. Cell pellet was then homogenized on ice by ultrasonication using 1 s bursts and incubated on ice for at least 30 min. Intact cells and nuclei were pelleted by centrifugation at 10,000 × g for 2 min under cooling conditions. Pellet was then discarded and supernatant was transferred to fresh tube, incubated overnight with 0.5 ml NeutrAvidin Agarose under gentle rotation at 4°C and centrifuged at 500 × g for 5 min under cooling conditions. Supernatant was then discarded and the pellet washed twice with 200 µl lysis buffer. The biotinylated proteins were eluted with 100 µl sodium dodecyl sulfate (SDS) sample buffer (62.5 mM Tris, pH 6.8, 1% SDS, 10% glycerine, 50 mM dithiothreitol) containing 10 µM E64 at 65°C for 10 min. Sample was then centrifuged at 500 × g for 2 min. Pellet was discarded and supernatant subjected to protein electrophoresis and immunoblotting. The biotinylated proteins were separated under reducing conditions by SDS-PAGE using 7.5% SDS gel along with prestained protein marker (cat. #12949 from Cell Signaling). Proteins were then transferred onto a nitrocellulose membrane (UltraCruzTM […], Santa Cruz Biotechnology, TX, USA) by semi-dry blotting at 25 V for 30 min. Unspecific binding sites were blocked by incubating the membrane overnight at 4°C with 3% FBS in PBS supplemented with 0.02% sodium azide. Membrane was then incubated for 90 min with primary antibody (anti-α-hENaC, anti-δ-hENaC, and anti-β-actin from Sigma Aldrich; anti-β- and anti-γ-hENaC from Santa Cruz Biotechnology). Membrane was washed 5× with 10 ml PBS containing 0.1% Tween-20 (PBST), and corresponding horseradish peroxidase-conjugated secondary antibodies (Santa Cruz Biotechnology) were applied. After 90-min incubation, membrane was washed 3× with PBST and once with PBS. Enhanced chemiluminescence (ECL) substrate (Amersham ECL Plus Western Blotting Detection Reagent, GE Healthcare, Vienna, Austria) was used for visualization. Following incubation for 2 min, membranes were exposed to X-ray films (Amersham Hyperfilm ECL, GE Healthcare). Exposed films were scanned and quantified using ImageJ (NIH, MD, USA).
To study α-ENaC protein abundance in plasma membrane cell surface, biotinylation of HEK-293 cells transiently transfected with WT or different PHA1B mutants was followed by SDS-PAGE and immunoblotting. Expression of frameshift mutants varied markedly. […]

For `C[C@@H]1NC(=O)CNC(=O)[C@H](CCC(=O)O)NC(=O)[C@@H]2CCCN2C(=O)[C@H]([C@@H](C)O)NC(=O)[C@H](CCC(=O)O)NC(=O)[C@H](CCCNC(=N)N)NC(=O)[C@H](CCC(N)=O)NC(=O)CNC(=O)[C@@H](N)CSSC[C@@H](C(=O)O)NC(=O)[C@H](Cc2ccc(O)cc2)NC(=O)[C@H](Cc2c[nH]c3ccccc23)NC(=O)[C@@H]2CCCN2C(=O)[C@H](CCCCN)NC(=O)[C@H](C)NC(=O)[C@H](CCC(=O)O)NC1=O` [solnatide, L-cysteine, L-cysteinylglycyl-L-glutaminyl-L-arginyl-L-α-glutamyl-L-threonyl-L-prolyl-L-α-glutamylglycyl-L-alanyl-L-α-glutamyl-L-alanyl-L-lysyl-L-prolyl-L-tryptophyl-L-tyrosyl-, cyclic (1→17)-disulfide], the “Membrane abundance of α-ENaC” value [1] is listed as “transient and significant increase in membrane abundance of α-ENaC”, the “Alveolar fluid reabsorption” value (flooded rat lung) is listed as “activate fluid reabsorption in in situ and in vivo flooded rat lung models” and the “Therapeutic activity” value (pulmonary edema) is listed as “profound therapeutic activity”. For the same molecule, the “Lung function” value (rat lung transplantation) was “significantly improved lung function”, the “Binding capacity” value ([2]; double V567A/E568A and triple V567A/E568A/E571A α-ENaC mutants) was “reduced binding capacity” and the “Increase in Po” value ([2]; double and triple α-ENaC TM2 alanine mutants vs WT ENaC) was “abolition of the increase in Po”. The “Effect of solnatide on current (words)” value (αL576XβD546XγD556X) was “an even slighter, non-significant increase of current”, the “Membrane abundance” value (αT482fs; glycosylated αT482fs, 200 nM solnatide, 5 min, n = 4) was “even more after 5 min of solnatide treatment” and the “Increase in membrane abundance after PNGase F” value (αT482fs; αT482fs, 200 nM solnatide, 100 units PNGase F, n = 4) was “completely abolished in deglycosylated mutants; also recorded: after PNGase F treatment no differences can be observed”. The “Membrane abundance after solnatide” value (αT482fs; αT482fs, HEK-293, discussion, no time stated) was “the membrane abundance increasing even further following exposure to solnatide”, the “Membrane abundance, solnatide 5 min” value (αT482fs; αT482fs, 200 nM, 5 min, relative to WT control (=1), own control 4.67 ± 0.27, p < 0.001 vs control, n = 4) was 6.23 ± 0.24*** and the “Membrane abundance, solnatide 10 min” value (αT482fs; αT482fs, 200 nM, 10 min, relative to WT control (=1), own control 4.67 ± 0.27, n = 4) was 4.58 ± 0.30.
